Measurements reported in the NIST ThermoML archive (doi:10.1021/acs.jced.7b00440).
Numbers after ± are expanded uncertainties.

Settings: 100 kPa, Liquid; for viscosity: Capillary tube (Ostwald / Ubbelohde) method; for mass density: Vibrating tube method

viscosity (293.15 K) [mPa·s]	mass density (293.15 K) [kg/m3]	viscosity (298.15 K) [mPa·s]	mass density (298.15 K) [kg/m3]	viscosity (303.15 K) [mPa·s]	mass density (303.15 K) [kg/m3]	viscosity (308.15 K) [mPa·s]	mass density (308.15 K) [kg/m3]	viscosity (313.15 K) [mPa·s]	mass density (313.15 K) [kg/m3]	viscosity (318.15 K) [mPa·s]	mass density (318.15 K) [kg/m3]	viscosity (323.15 K) [mPa·s]	mass density (323.15 K) [kg/m3]	viscosity (328.15 K) [mPa·s]	mass density (328.15 K) [kg/m3]	viscosity (333.15 K) [mPa·s]	mass density (333.15 K) [kg/m3]	Structure (SMILES)
4.077 ± 0.079	801.98 ± 0.27	3.394 ± 0.066	798.13 ± 0.27	2.949 ± 0.057	794.24 ± 0.27	2.54 ± 0.049	790.29 ± 0.27	2.208 ± 0.043	786.3 ± 0.27	1.855 ± 0.036	782.24 ± 0.27	1.621 ± 0.032	778.12 ± 0.27	1.425 ± 0.028	773.92 ± 0.27	1.25 ± 0.024	769.65 ± 0.27	CC(C)CO [2-methyl-1-propanol]
3.742 ± 0.071	807.17 ± 0.2	3.093 ± 0.059	803.05 ± 0.21	2.579 ± 0.049	798.85 ± 0.21	2.147 ± 0.041	794.55 ± 0.21	1.826 ± 0.035	790.16 ± 0.21	1.555 ± 0.03	785.66 ± 0.21	1.337 ± 0.025	781.05 ± 0.21	1.142 ± 0.022	776.34 ± 0.21	0.992 ± 0.019	771.51 ± 0.21	CCC(C)O (centres undefined) [butan-2-ol]
2.97 ± 0.056	809.01 ± 0.2	2.547 ± 0.048	805.87 ± 0.2	2.237 ± 0.042	802.06 ± 0.21	1.98 ± 0.038	798.18 ± 0.21	1.757 ± 0.033	794.26 ± 0.21	1.568 ± 0.03	790.3 ± 0.21	1.404 ± 0.027	786.29 ± 0.21	1.255 ± 0.024	782.02 ± 0.21	1.132 ± 0.022	777.81 ± 0.21	CCCCO [butan-1-ol]
